The values below come from patent US20230265151A1, “GIP/GLP1 CO-AGONIST COMPOUNDS” (priority 2020, published 2023).

Holding throughout (assay type): cell-based
Assay [1] has as its target T1, hGIPR (Homo sapiens, UniProt P48546).
T1 construct: expressed in transfected cells
T1 sequence (P48546 22-466): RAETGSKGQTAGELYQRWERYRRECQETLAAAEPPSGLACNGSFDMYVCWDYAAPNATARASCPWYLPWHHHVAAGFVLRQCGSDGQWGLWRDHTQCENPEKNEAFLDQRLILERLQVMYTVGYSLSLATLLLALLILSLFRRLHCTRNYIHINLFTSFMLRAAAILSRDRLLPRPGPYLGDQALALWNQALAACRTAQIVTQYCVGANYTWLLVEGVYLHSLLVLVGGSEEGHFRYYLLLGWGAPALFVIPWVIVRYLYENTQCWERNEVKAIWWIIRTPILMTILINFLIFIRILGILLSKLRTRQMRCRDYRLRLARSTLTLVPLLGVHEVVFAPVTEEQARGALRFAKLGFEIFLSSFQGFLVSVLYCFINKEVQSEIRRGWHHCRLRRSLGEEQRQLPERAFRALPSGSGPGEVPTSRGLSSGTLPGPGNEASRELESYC
Description: Functional cAMP formation (HTRF) in HEK-293 clonal cells expressing hGIPR, 0.1% bovine casein, without or with 1.0% human serum albumin. The note with it: for EC50: hGIPR EC50, nM (SEM, n), cAMP, 0.1% bovine casein (no human serum albumin), geometric mean. Summed up:
(§1)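 Cells were stimulated with peptide for 30 min at 37° C, then intracellular cAMP was measured by competitive HTRF (665/620 nm ratio) and converted to nM using a cAMP standard curve. Relative EC50 and Emax came from four-parameter logistic fits of percent maximal response against peptide concentration.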
(cAMP levels reflect the balance of adenylyl cyclase and phosphodiesterase activity.)

Assay [2] has as its target T2, hGCGR (Homo sapiens, UniProt P47871).
T2 construct: expressed in transfected cells
The assay is described as follows: Functional cAMP formation (HTRF) in HEK-293 clonal cells expressing hGCGR, 0.1% bovine casein, without or with 1.0% human serum albumin. Conditions: hGCGR EC50, nM (SEM, n), cAMP. Summed up: as §1

Assay [3] addresses hGLP-1R (Homo sapiens, UniProt P43220). Description: Functional cAMP formation (HTRF) in HEK-293 clonal cells expressing hGLP-1R, 0.1% bovine casein, without or with 1.0% human serum albumin. The note with it: for EC50: hGLP-1R EC50, nM (SEM, n), cAMP, 0.1% bovine casein (no human serum albumin), geometric mean. More on the design: expressed in transfected cells. Summed up: as §1

Setting [4] is: HEK293, read-out: hGIPR Emax, % ± SEM, cAMP, 37° C., 0.1% bovine casein and 1.0% human serum albumin, percent of maximal response to GIP(1-42)NH2.
The mark [5] stands for this setting: 37° C., 0.1% bovine casein (no human serum albumin), geometric mean.
The mark [6] stands for this setting: 37° C., 0.1% bovine casein and 1.0% human serum albumin, geometric mean (SEM, n).
Setting [7] is: HEK293, read-out: hGIPR Emax, % ± SEM, percent of maximal response to GIP(1-42)NH2, 37° C., 0.1% bovine casein, arithmetic mean.
Where [8] appears, read: incubated at 37° C., 0.1% bovine casein (no human serum albumin), geometric mean.

Where two headings read alike, the source gives them in different places. *1 amine or outer side, *2 acyl side, *3 side chain or, on linkers, in order; H or OH if unused. Where a SMILES comes first, the peptide text is derived from it. Side-chain parts run from the residue outwards. [ ]: non-standard residue; d: D form. The star is where a group is joined. Decanoyl(10-(4-HOOC-PhO)) = O=C(O)c1ccc(OCCCCCCCCCC(=O)*)cc1; αMePhe(2-F) = C[C@](N)(Cc1ccccc1F)C(=O)O; γGlu = O=C(O)[C@H](CCC(=O)[*:2])N[*:1]; αMeY = C[C@](N)(Cc1ccc(O)cc1)C(=O)O; αMeL = CC(C)C[C@](C)(N)C(=O)O; Orn = NCCC[C@H](N)C(=O)O; AEEA = NCCOCCOCC(=O)O; Aib = CC(C)(N)C(=O)O

Chain of hGLP-1R (P43220 24-463): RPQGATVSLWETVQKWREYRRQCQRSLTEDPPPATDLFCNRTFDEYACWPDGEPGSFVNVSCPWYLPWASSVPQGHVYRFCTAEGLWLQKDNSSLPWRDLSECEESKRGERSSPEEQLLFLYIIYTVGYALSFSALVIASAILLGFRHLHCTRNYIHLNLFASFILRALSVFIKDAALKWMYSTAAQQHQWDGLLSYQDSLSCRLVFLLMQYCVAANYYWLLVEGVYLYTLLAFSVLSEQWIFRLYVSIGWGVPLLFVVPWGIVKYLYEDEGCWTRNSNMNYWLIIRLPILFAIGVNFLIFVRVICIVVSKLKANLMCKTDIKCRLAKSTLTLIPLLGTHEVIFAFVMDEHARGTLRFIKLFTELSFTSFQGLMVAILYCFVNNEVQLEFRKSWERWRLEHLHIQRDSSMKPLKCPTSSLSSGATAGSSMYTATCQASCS
T2 sequence (P47871 26-477): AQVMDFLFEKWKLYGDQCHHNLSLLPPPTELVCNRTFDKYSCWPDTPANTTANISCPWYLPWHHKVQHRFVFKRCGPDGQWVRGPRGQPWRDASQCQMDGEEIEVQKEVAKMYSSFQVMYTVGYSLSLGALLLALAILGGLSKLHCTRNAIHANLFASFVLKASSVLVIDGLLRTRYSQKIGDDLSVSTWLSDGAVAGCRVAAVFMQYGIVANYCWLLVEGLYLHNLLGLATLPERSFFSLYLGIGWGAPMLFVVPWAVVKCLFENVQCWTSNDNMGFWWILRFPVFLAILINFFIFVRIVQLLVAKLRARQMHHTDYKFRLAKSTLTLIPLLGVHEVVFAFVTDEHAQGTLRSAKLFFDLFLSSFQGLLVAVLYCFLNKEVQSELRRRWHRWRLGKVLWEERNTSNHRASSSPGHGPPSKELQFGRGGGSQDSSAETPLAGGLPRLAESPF

As usually defined, the Emax is the maximal effect, on the per cent scale that the assay sets. As a reminder, the EC50 is the concentration giving half of the maximal effect. Take `CC[C@H](C)[C@H](NC(=O)[C@H](CCCN)NC(=O)[C@H](CC(=O)O)NC(=O)[C@H](CC(C)C)NC(=O)[C@](C)(CC(C)C)NC(=O)[C@@H](NC(=O)C(C)(C)NC(=O)[C@@H](NC(=O)[C@H](CC(=O)O)NC(=O)[C@H](CO)NC(=O)[C@@H](NC(=O)[C@](C)(Cc1ccccc1F)NC(=O)[C@@H](NC(=O)CNC(=O)[C@H](CCC(=O)O)NC(=O)C(C)(C)NC(=O)[C@@H](N)Cc1ccc(O)cc1)[C@@H](C)O)[C@@H](C)O)C(C)C)[C@@H](C)CC)C(=O)N[C@@H](C)C(=O)N[C@@H](CCC(N)=O)C(=O)NC(C)(C)C(=O)N[C@@H](CCC(=O)O)C(=O)N[C@@H](Cc1ccccc1)C(=O)N[C@H](C(=O)N[C@@H](CCCCNC(=O)COCCOCCNC(=O)CC[C@H](NC(=O)CCCCCCCCCOc1ccc(C(=O)O)cc1)C(=O)O)C(=O)N[C@@](C)(Cc1ccc(O)cc1)C(=O)N[C@@H](CC(C)C)C(=O)N[C@H](C(=O)N[C@@H](CCCCNC(=O)COCCOCCNC(=O)CC[C@H](NC(=O)CCCCCCCCCOc1ccc(C(=O)O)cc1)C(=O)O)C(=O)NCC(=O)NCC(=O)N1CCC[C@H]1C(=O)N[C@@H](CO)C(=O)N[C@@H](CO)C(=O)NCC(=O)N[C@@H](C)C(=O)N1CCC[C@H]1C(=O)N1CCC[C@H]1C(=O)N1CCC[C@H]1C(=O)N[C@@H](CO)C(N)=O)[C@@H](C)CC)[C@@H](C)CC` [Example 381]: the Emax in assay [1] (setting [4]) turned out to be 90.3%; in assay [3] (HEK293, read-out: hGLP-1R Emax, % ± SEM, cAMP, 37° C., 0.1% bovine casein, percent of maximal response to GLP-1(7-36)NH2, arithmetic mean), 105%. Further, the EC50 in assay [1] (37° C.) is 0.0784 nM; in assay [2] (setting [5]), above 9950 nM; in assay [2] (setting [6]), above 9950 nM; in assay [3] (37° C.), 1.1 nM.
Consider `CC[C@H](C)[C@H](NC(=O)[C@H](CC(C)C)NC(=O)[C@](C)(Cc1ccc(O)cc1)NC(=O)[C@H](CCCCNC(=O)COCCOCCNC(=O)COCCOCCNC(=O)CC[C@H](NC(=O)CCCCCCCCCCCCC(=O)O)C(=O)O)NC(=O)[C@@H](NC(=O)[C@H](Cc1ccccc1)NC(=O)[C@H](CCC(=O)O)NC(=O)C(C)(C)NC(=O)[C@H](CCC(N)=O)NC(=O)[C@H](C)NC(=O)[C@H](CCCCNC(=O)COCCOCCNC(=O)COCCOCCNC(=O)CC[C@H](NC(=O)CCCCCCCCCCCCC(=O)O)C(=O)O)NC(=O)[C@H](CCCN)NC(=O)[C@H](CC(=O)O)NC(=O)[C@H](CC(C)C)NC(=O)[C@](C)(CC(C)C)NC(=O)[C@@H](NC(=O)C(C)(C)NC(=O)[C@@H](NC(=O)[C@H](CC(=O)O)NC(=O)[C@H](CO)NC(=O)[C@@H](NC(=O)[C@](C)(Cc1ccccc1)NC(=O)[C@@H](NC(=O)CNC(=O)[C@H](CCC(=O)O)NC(=O)C(C)(C)NC(=O)[C@@H](N)Cc1ccc(O)cc1)[C@@H](C)O)[C@@H](C)O)C(C)C)[C@@H](C)CC)[C@@H](C)CC)C(=O)N[C@@H](CCC(=O)O)C(=O)NCC(=O)NCC(=O)N1CCC[C@H]1C(=O)N[C@@H](CO)C(=O)N[C@@H](CO)C(=O)NCC(=O)N[C@@H](C)C(=O)N1CCC[C@H]1C(=O)N1CCC[C@H]1C(=O)N1CCC[C@H]1C(=O)N[C@@H](CO)C(N)=O` [Example 182], for which the Emax in assay [1] (setting [7]) turned out to be 89%; in assay [3] (HEK293, read-out: hGLP-1R Emax, % ± SEM, percent of maximal response to GLP-1(7-36)NH2, 37° C., 0.1% bovine casein, arithmetic mean), 96.9%. Besides, the results for the EC50 in assay [2] (setting [8]) and in assay [3] (incubated at 37° C.) were above 9950 nM and 0.185 nM, respectively.
As to `CC[C@H](C)[C@H](NC(=O)[C@H](CC(C)C)NC(=O)[C@](C)(Cc1ccc(O)cc1)NC(=O)[C@@H](CCC(=O)O)NC(=O)[C@@H](NC(=O)[C@H](Cc1ccccc1)NC(=O)[C@H](CCCN)NC(=O)C(C)(C)NC(=O)[C@H](CCC(N)=O)NC(=O)[C@H](C)NC(=O)[C@H](CCCCNC(=O)COCCOCCNC(=O)COCCOCCNC(=O)CC[C@H](NC(=O)CCCCCCCCCOc1ccc(C(=O)O)cc1)C(=O)O)NC(=O)[C@H](CCCN)NC(=O)[C@H](CC(=O)O)NC(=O)[C@H](CC(C)C)NC(=O)[C@](C)(CC(C)C)NC(=O)[C@@H](NC(=O)C(C)(C)NC(=O)[C@H](Cc1ccc(O)cc1)NC(=O)[C@H](CC(=O)O)NC(=O)[C@H](CO)NC(=O)[C@@H](NC(=O)[C@](C)(Cc1ccccc1F)NC(=O)[C@@H](NC(=O)CNC(=O)[C@H](CCC(=O)O)NC(=O)C(C)(C)NC(=O)[C@@H](N)Cc1ccc(O)cc1)[C@@H](C)O)[C@@H](C)O)[C@@H](C)CC)[C@@H](C)CC)C(=O)N[C@@H](CCCCNC(=O)COCCOCCNC(=O)COCCOCCNC(=O)CC[C@H](NC(=O)CCCCCCCCCOc1ccc(C(=O)O)cc1)C(=O)O)C(=O)NCC(=O)NCC(=O)N1CCC[C@H]1C(=O)N[C@@H](CO)C(=O)N[C@@H](CO)C(=O)NCC(=O)N[C@@H](C)C(=O)N1CCC[C@H]1C(=O)N1CCC[C@H]1C(=O)N1CCC[C@H]1C(=O)N[C@@H](CO)C(N)=O` [Example 352] (H-Y[Aib]EGT[αMePhe(2-F)]TSDY[Aib]I[αMeL]LD[Orn]K([AEEA-AEEA-γGlu-Decanoyl(10-(4-HOOC-PhO))])AQ[Aib][Orn]FI[dE][αMeY]LIK([AEEA-AEEA-γGlu-Decanoyl(10-(4-HOOC-PhO))])GGPSSGAPPPS-NH2), the Emax is 71.3% in assay [1] (setting [4]); 98.3% in assay [1] (HEK293, read-out: hGIPR Emax, % ± SEM, cAMP, 37° C., 0.1% bovine casein, percent of maximal response to GIP(1-42)NH2, arithmetic mean); 93.5% in assay [3] (HEK293, read-out: hGLP-1R Emax, % ± SEM, cAMP, 37° C., 0.1% bovine casein and 1.0% human serum albumin, percent of maximal response to GLP-1(7-36)NH2). The EC50 in assay [1] (37° C.) was 0.0106 nM; in assay [2] (setting [5]) it was above 9950 nM; in assay [2] (setting [6]) it was above 9950 nM; in assay [3] (37° C.), 0.262 nM.
On to `CC[C@H](C)[C@H](NC(=O)[C@H](CC(C)C)NC(=O)[C@](C)(Cc1ccccc1)NC(=O)[C@H](CCCCNC(=O)COCCOCCNC(=O)COCCOCCNC(=O)CC[C@H](NC(=O)CCCCCCCCCCCCC(=O)O)C(=O)O)NC(=O)[C@@H](NC(=O)[C@](C)(Cc1ccccc1)NC(=O)[C@H](CCC(=O)O)NC(=O)C(C)(C)NC(=O)[C@H](CCC(N)=O)NC(=O)[C@H](C)NC(=O)[C@H](CCCCNC(=O)COCCOCCNC(=O)COCCOCCNC(=O)CC[C@H](NC(=O)CCCCCCCCCCCCC(=O)O)C(=O)O)NC(=O)[C@H](CCCN)NC(=O)[C@H](CC(=O)O)NC(=O)[C@H](CC(C)C)NC(=O)[C@](C)(CC(C)C)NC(=O)[C@@H](NC(=O)C(C)(C)NC(=O)[C@H](Cc1ccncc1)NC(=O)[C@H](CC(=O)O)NC(=O)[C@H](CO)NC(=O)[C@@H](NC(=O)[C@](C)(Cc1ccccc1F)NC(=O)[C@@H](NC(=O)CNC(=O)[C@H](CCC(=O)O)NC(=O)C(C)(C)NC(=O)[C@@H](N)Cc1ccc(O)cc1)[C@@H](C)O)[C@@H](C)O)[C@@H](C)CC)[C@@H](C)CC)C(=O)N[C@@H](CCC(=O)O)C(=O)NCC(=O)NCC(=O)N1CCC[C@H]1C(=O)N[C@@H](CO)C(=O)N[C@@H](CO)C(=O)NCC(=O)N[C@@H](C)C(=O)N1CCC[C@H]1C(=O)N1CCC[C@H]1C(=O)N1CCC[C@H]1C(=O)N[C@@H](CO)C(N)=O` [Example 121], for which the Emax in assay [1] (setting [7]) was determined as 92.8%. The EC50 was 0.0271 nM in assay [1] (incubated at 37° C.), above 9950 nM in assay [2] (setting [8]) and 8.95 nM in assay [3] (incubated at 37° C.).
